Laboratory results from patent publication US9738614B2, “Malignant and non-malignant disease treatment with Ras antagonists” (PISCES THERAPEUTICS, LLC, priority 2011, dated 2017).
pEC50, pIC50: −log10 of the molar value. Where two headings read alike, the source gives them in different places.

What was measured:
[1] = test system: primary human lung fibroblasts; assay: Inhibition of TGF-β induced myofibroblast formation (α-SMA Western blot); type: cell-based; details: Homo sapiens, Fibroblast, TGF-β 72 hours, 0.5 to 2 μM
Protocol: Primary human lung fibroblasts were stimulated for 72 hours with transforming growth factor beta (TGF-β) to induce their differentiation to an alpha smooth muscle actin (α-SMA) expressing activated myofibroblasts cell fate. […] The activin like kinase receptor (ALK5) inhibitor SB431542 was used as a positive control. Myofibroblast formation was evaluated by Western blot by examining changes in α-SMA levels.

[2] = test system: ST88-14 cells; assay: IC50 assay with ST88-14 MPNST cells; type: cell-based, human; details: 0.1 to 50 μM, two separate experiments, read-out: half-maximal effects on cell viability
Protocol: (§1) U87MG cells were seeded in a 24-well plate, 5000 cells per well, and incubated overnight at 37° C. in serum-free media. The next day they were treated in triplicate with 50 and 100 μM of each test compound (1), (2), (3), (4), and (5) and the reference compound FTS. After five days, the cells were trypsinized (0.5%), stained with trypan blue, and counted to determine the cell number per well. The half-maximal inhibitory concentration (IC50) values were calculated using Multiplex Reader-Fit software made by MiraiBio Group, Hitachi Solutions America, Ltd. In a typical experiment, the control wells averaged 138,000 cells. The results are presented graphically in FIG. 1. The test compounds at 50 μM allowed the following U87MG cell proliferation compared to control: compound (1)—37%, compound (2)—18%, compound (3)—10%, compound (4)—40%, and compound (5)—0%. The reference compound FTS at 50 μM allowed 7% cell proliferation compared to control.
IC50 assays similar to Example 6 above were performed with ST88-14 cells derived from a MPNST removed from a patient who had NF-1. The cells have loss-of-function mutations in both copies of the NF-1 gene, neurofibromin, which is discussed further above. ST88-14 cells were grown in concentrations of compound (5) ranging from 0.1 to 50 μM in two separate experiments. […]

[3] = test system: MCF-7 cells; assay: IC50 assay with MCF-7 breast cancer cells; type: cell-based; details: Homo sapiens, MCF7, 0.6 to 10 μM, read-out: half-maximal decrease in viability
Protocol: as §1
MCF-7 breast cancer cells, which harbor an activating “K-Ras variant” mutation, were subjected to an IC50 assay similar to Example 6 above. This “K-Ras variant” mutation is in a site that a microRNA binds to, destabilizing the mRNA that encodes Ras. […] MCF-7 cells were grown in concentrations of compound (5) ranging from 0.6 to 10 μM.

[4] = test system: JW16 cells; assay: IC50 assay with JW16 mouse MPNST cells; type: cell-based; details: 0.5 to 20 μM, read-out: half-maximal effect on viability
Protocol: as §1
Mouse models of NF-1 related MPNST have been made. Cells from two such mice, JW16 and JW19, have been isolated and propagated. The JW16 and JW19 cells were subjected to IC50 assays similar to Example 6 above.

CC(C)=CCC/C(C)=C/CC/C(C)=C/CSc1ccccc1C1=NCCN1 [compound (5), 2-(2-{[(2E,6E)-3,7,11-trimethyldodeca-2,6,10-trien-1-yl]sulfanyl}phenyl)-4,5-dihydro-1H-imidazole]
pEC50 [1]: ~6.00
pIC50 ([2]; Homo sapiens, ST88-14, ST88-14 cells): 5.26
pIC50 ([2]; ST88-14 cells): 5.18
pIC50 [3]: 5.70
pIC50 [4]: 5.66
